The results in this text go back to publication PMC6747015, “Structure–function study of a novel inhibitor of the casein kinase 1 family in Arabidopsis thaliana” (Plant Direct, 2019).

The target of one test is T1, Recombinant CKL4 kinase (Arabidopsis thaliana, UniProt Q8LPI7).
T1 sequence (Q8LPI7 1-414): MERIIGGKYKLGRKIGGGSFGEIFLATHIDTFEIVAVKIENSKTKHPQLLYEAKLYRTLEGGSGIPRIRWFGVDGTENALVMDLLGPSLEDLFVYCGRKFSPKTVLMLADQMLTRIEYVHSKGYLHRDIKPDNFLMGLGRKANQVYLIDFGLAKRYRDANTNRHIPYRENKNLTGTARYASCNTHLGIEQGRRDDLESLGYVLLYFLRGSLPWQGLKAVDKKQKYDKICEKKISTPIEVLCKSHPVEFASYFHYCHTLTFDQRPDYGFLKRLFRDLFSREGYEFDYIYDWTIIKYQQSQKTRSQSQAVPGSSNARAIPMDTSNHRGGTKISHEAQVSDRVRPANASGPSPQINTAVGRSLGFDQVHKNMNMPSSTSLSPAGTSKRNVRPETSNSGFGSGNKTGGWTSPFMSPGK
Nature of the test: In vitro phosphorylation assay of CKL4 (32P phosphorylation of casein). The class given is biochemical. The settings on record: recombinant CKL4, casein, 32P‐ATP, 37°C for 2 hr; read-out: IC50 for in vitro CKL4 kinase activity. The procedure:
In vitro phosphorylation assays using recombinant CKL4 were performed as described previously (Uehara et al., 2019), with synthetic small molecules. IC261 and PF‐670462 were purchased (Sigma‐Aldrich catalog numbers I0658 and SML0795, respectively). PHA767491 was synthesized as previously described (Uehara et al., 2019). All chemical compounds were dissolved in dimethyl sulfoxide (DMSO) as 10 mM stock solutions. Stock solutions were diluted with DMSO to the working concentration and added to assays in kinase reaction buffer (Uehara et al., 2019).
The activities of three known CK1 inhibitors were measured in vitro by a previously reported method (Uehara et al., 2019). Recombinant CKL4 kinase, casein, ^32P‐ATP, and different concentrations of the inhibitors were combined in a reaction buffer and kept at 37°C for 2 hr. Resulting samples were separated on a polyacrylamide gel by electrophoresis, and ^32P phosphorylation of casein was measured as an indicator of CKL4 kinase activity. IC50 (half‐maximal inhibitory concentration) was determined by calculating the results from at least two independent experiments. […] The stronger in vitro CK1 inhibitory activity shown by PF‐670462 relative to PHA767491 was consistent with previous reports (Uehara et al., 2019).

A further test has as its system CCA1:LUC seedlings. Nature of the test: Bioluminescence-based circadian period lengthening in CCA1:LUC seedlings. It counts as in vivo, Arabidopsis thaliana. As to the method:
Bioluminescence‐based circadian rhythms of CCA1:LUC plants treated with small molecules were analyzed by auto‐luminescence detection (Churitsu CL96) as described previously (Uehara et al., 2019). Period length was automatically calculated as previously described (Kamioka et al., 2016).
To estimate CK1 inhibitor activity in vivo, we choose to measure circadian period‐lengthening activity in Arabidopsis seedlings. The assay was made more efficient by monitoring the circadian period using a clock reporter plant line (CCA1:LUC) and an automated luminometer. These tools can be used to measure the circadian period with high confidence, and estimates of in vivo CK1 inhibitor activity are quantitative (Uehara et al., 2019). Four‐day‐old CCA1:LUC seedlings grown under 12‐hr light/12‐hr dark conditions were treated with IC261, PF‐670462, and PHA767491 at different concentrations, and seedling luminescence was monitored under constant light conditions. Dimethyl sulfoxide (DMSO), the solvent used for all of the CK1 inhibitors, was used as a control. IC261 lengthened the circadian period of CCA1:LUC seedlings in a dose‐dependent manner (Figure 1d), with a 2‐hr period lengthening at 500 µM. PF‐670462 and PHA767491 treatment concentrations also correlated with period lengthening (Figure 1e and f). The concentrations required for 2‐hr lengthening effects were 90 µM for PF‐670472 and 47 µM for PHA767491, which was consistent with previous work (Uehara et al., 2019). Thus, PHA767491 was the strongest in vivo CK1 inhibitor among the three inhibitors tested.

The mark [1] stands for this setting: CCA1:LUC seedlings, constant light.

A word on the IC50: it is the point on the concentration scale where inhibition reaches its midpoint. For the compound `C#CCn1c2c(c(Br)c1-c1ccncc1)C(=O)NCC2.Cl` [AMI‐331], the IC50 at Recombinant CKL4 kinase stood at 700 nM. In the test with CCA1:LUC seedlings (setting [1]), the “Concentration required for 2‐hr period lengthening (2hLC)” value turned out to be 0.4 µM and the “Concentration required for 5‐hr period lengthening (5hLC)” value is reported as 1.4 µM. In the test on CCA1:LUC seedlings (in vivo), the “Concentration that significantly lengthens the circadian clock period” value is “below 1 µM”.
